Laboratory results published in the NIST ThermoML archive (doi:10.1016/j.fluid.2012.11.039).

What was measured:
[1] = Liquid, Vibrating tube method
[2] = xn = mol fraction of the nth substance listed; conditions: Liquid, Vibrating tube method

CCCCCCCCCC [decane]
[1], 373.2 K
Conditions	mass density [kg/m3]
100 kPa	667.1
1000 kPa	668.4
2000 kPa	669.6
3000 kPa	670.9
4000 kPa	672.1
5000 kPa	673.4
6000 kPa	674.5
7000 kPa	675.7
8000 kPa	676.9
9000 kPa	678.1
10000 kPa	679.2

CCCCCCCCCC [decane] + CCCCCCCCCCCCCCCCCC
[2], 373.2 K, x2 = 0
Conditions	mass density [kg/m3]
100 kPa	667.1
1000 kPa	668.4
2000 kPa	669.6
3000 kPa	670.9
4000 kPa	672.1
5000 kPa	673.4
6000 kPa	674.5
7000 kPa	675.7
8000 kPa	676.9
9000 kPa	678.1
10000 kPa	679.2

CCCCCCCCCCCCCCCCCC [octadecane]
[1], 372.9 K
Conditions	mass density [kg/m3]
1010 kPa	728.2
2010 kPa	729.2
3020 kPa	730.2
4000 kPa	731.1
5000 kPa	732
6020 kPa	732.9
7010 kPa	733.8
8000 kPa	734.7
8990 kPa	735.6
9980 kPa	736.4

CCCCCCCCCCCCCCCCCC [octadecane] + CCCCCCCCCC
[2]
Conditions	mass density [kg/m3]
372.7 K, 100 kPa, x1 = 0.25	689.9
372.7 K, 1010 kPa, x1 = 0.25	691
372.7 K, 2010 kPa, x1 = 0.25	692.2
372.7 K, 3020 kPa, x1 = 0.25	693.3
372.7 K, 4010 kPa, x1 = 0.25	694.4
372.7 K, 5010 kPa, x1 = 0.25	695.5
372.7 K, 6010 kPa, x1 = 0.25	696.6
372.7 K, 7010 kPa, x1 = 0.25	697.7
372.7 K, 8010 kPa, x1 = 0.25	698.7
372.7 K, 9020 kPa, x1 = 0.25	699.8
372.7 K, 10010 kPa, x1 = 0.25	700.8
372.8 K, 100 kPa, x1 = 0.5	705.7
372.8 K, 100 kPa, x1 = 0.75	717.8
372.8 K, 1020 kPa, x1 = 0.5	706.8
372.8 K, 1050 kPa, x1 = 0.75	718.9
372.8 K, 2020 kPa, x1 = 0.5	707.8
372.8 K, 2020 kPa, x1 = 0.75	719.9
372.8 K, 2940 kPa, x1 = 0.5	708.7
372.8 K, 3000 kPa, x1 = 0.75	720.8
372.8 K, 4000 kPa, x1 = 0.75	721.8
372.8 K, 4010 kPa, x1 = 0.5	709.9
372.8 K, 5010 kPa, x1 = 0.5	710.9
372.8 K, 5010 kPa, x1 = 0.75	722.8
372.8 K, 6000 kPa, x1 = 0.5	711.9
372.8 K, 6000 kPa, x1 = 0.75	723.7
372.8 K, 7000 kPa, x1 = 0.5	712.9
372.8 K, 7010 kPa, x1 = 0.75	724.6
372.8 K, 8000 kPa, x1 = 0.5	713.9
372.8 K, 8000 kPa, x1 = 0.75	725.5
372.8 K, 8990 kPa, x1 = 0.75	726.4
372.8 K, 9010 kPa, x1 = 0.5	714.8
372.8 K, 10010 kPa, x1 = 0.5	715.8
372.8 K, 10010 kPa, x1 = 0.75	727.4
372.9 K, 1010 kPa, x1 = 1	728.2
372.9 K, 2010 kPa, x1 = 1	729.2
372.9 K, 3020 kPa, x1 = 1	730.2
372.9 K, 4000 kPa, x1 = 1	731.1
372.9 K, 5000 kPa, x1 = 1	732
372.9 K, 6020 kPa, x1 = 1	732.9
372.9 K, 7010 kPa, x1 = 1	733.8
372.9 K, 8000 kPa, x1 = 1	734.7
372.9 K, 8990 kPa, x1 = 1	735.6
372.9 K, 9980 kPa, x1 = 1	736.4
